# Reference: patent publication US20070015733A1, “Aryl Phosphate Derivatives of d4T having Activity Against Resistant HIV Strains” (Parker Hughes Institute, priority 1998, published 2007)
# Like-named read-outs stand apart in the source and are kept apart here.
# How the values were obtained:
# [1] = test system: NRTI-resistant recombinant HIV-1 isolates; experiment: RT activity assay, multi-NRTI-resistant recombinant HIV-1 clones; assay type: cell-based
# [2] = test system: NRTI-resistant recombinant HIV-1 isolates; experiment: p24 assay, multi-NRTI-resistant recombinant HIV-1 clones; assay type: cell-based
# HIV-2 (Strain: CBL-20) = experiment: Inhibition of HIV-2 replication in PBMNC (RT activity); assay type: cell-based
# Description: (P-AZT) and with AZT. The incubation and analysis methods used were as described above for Example 3.
# (§1) Cellular Assays of Anti-HIV Activity and Cytotoxicity. […] Percent viral inhibition was calculated by comparing the RT activity values from the test substance-treated infected cells with RT values from untreated infected cells (i.e., virus controls).
# [3] = test system: HIV-1 A17 (Y181C mutant, NNRTI-resistant); experiment: p24 antigen assay, A17 strain in PBMC; assay type: cell-based; settings: Human immunodeficiency virus 1, PBMC, read-out: IC50 A17
# From the text: In vitro assays of anti-HIV-1 activity.
# Viruses. 20 primary clinical isolates with genotypic and/or phenotypic NRTI-resistance (isolated in the laboratory of D. Richman) and 10 clinical isolates with phenotypic stavudine (d4T) resistance (obtained through the AIDS Research and Reference Reagent Program, NIAID) were used in the current study. The HIV-1 strains HTLVIIIB (wildtype RT, NRTI-sensitive, NNRTI-sensitive), A17 (Y181 C mutant, NNRTI-resistant), A17-variant (Y181C+K103N mutant, NNRTI-resistant), and RT-MDR (M41 L, V106N, T215Y; NRTI-resistant, NNRTI-resistant) were also obtained from the AIDS Research and Reference Reagent Program, NIAID.
# Antiviral susceptibility assays.
# [4] = test system: Zidovudine-Sensitive Primary Clinical HIV-1 Isolates; experiment: p24 drug susceptibility assay, zidovudine-sensitive primary clinical HIV-1 isolates in PBMC; assay type: cell-based; settings: Human immunodeficiency virus 1, PBMC
# Description: Antiviral susceptibility assays. Phenotypic drug susceptibility studies of HIV-1 isolates and strains were performed by measuring the production of the p24 gag protein in peripheral blood mononuclear cells (PBMC) from seronegative healthy volunteers in the presence of increasing concentrations of the anti-HIV agent using the quantitative Coulter HIV-1 p24 antigen ezyme immunoassay (EIA) and HIV-1 p24 Antigen Kinetic Standard (Beckman Coulter), as previously described (Uckun, 1998, Antimicrobial Agents and Chemotherapy 37(4): 835-38). Informed consent was obtained from the blood donors according to DHHS guidelines using consent forms approved by the Institutional Review Board. In brief, PBMC were cultured for 72 h in RPMI 1640 medium (Gibco) supplemented with 20% (vol/vol) heat-inactivated fetal bovine serum, 5% human interleukin-2 (Zeptometrix), 2 mM L-glutamine, 25 mM HEPES, 2 g/L NaHCO3, 100 U/ml penicillin/streptomycin (Gibco), 50 μg/ml gentamicin (Gibco), and 5 μg/ml phytohemagglutinin-P (PHA-P) (Sigma) for 24-72 hours prior to exposure to HIV at a multiplicity of infection of 0.001-0.1 during a 1-h adsorbtion period at 37±1° C. in a humidified 5-7% CO2 atmosphere. Subsequently, cells were cultured in 96-well microtiter plates (100 μl/well; 2×10^6 cells/ml, triplicate wells) in the presence of the anti-HIV agents at 6-7 different concentrations ranging from 0.0001 μM to 100 μM, and 25 μL aliquots of culture supernatants were removed from the wells on day 6 after infection for p24 EIA, as previously described (Uckun, 1998, Antimicrobial Agents and Chemotherapy, 37(4):835-38). Controls included uninfected and untreated cells (background control) and infected but untreated (virus control) cells. The p24 EIA utilizes a murine monoclonal antibody to HIV core protein used to coat microwell strips to which the antigen present in the test culture supernatant samples binds. Percent inhibition of viral replication was calculated by comparing the p24 values from the test substance-treated infected cells with p24 values from untreated infected cells (i.e., virus controls). The IC50 values were determined using the Statview statistics program (SAS Institute, Inc.). In parallel, the effects of various treatments on cell viability were also examined as previously described (Uckun, 1998, Antimicrobial Agents and Chemotherapy, 42:383-388). In brief, noninfected PBMC were treated with each compound for 5 days under identical experimental conditions. A microculture tetrazolium assay (MTA) was performed to quantitate cellular proliferation (Uckun, 1998, Antimicrobial Agents and Chemotherapy, 42:383-388).
# Phenotypic drug susceptibility studies of HIV-1 isolates and strains were performed by measuring the production of the p24 gag protein in peripheral blood mononuclear cells (PBMC) from seronegative healthy volunteers in the presence of increasing concentrations of the anti-HIV agent using the quantitative Coulter HIV-1 p24 antigen enzyme immunoassay (EIA) and HIV-1 p24 Antigen Kinetic Standard (Beckman Coulter), as previously described. StatView was used in the calculation of the IC50 values from each set of triplicate wells using the linearized form of an exponential equation (lnY=lnb0+b1X; where Y=% inhibition, X=drug concentration). The inhibition constants were log10 transformed to homogenize the variances within each group. […] P-values below 0.05 were deemed significant (JMP Software, SAS).
# [5] = test system: AZT- and NNI-resistant HIV-1 (strain: RTMDR-1); experiment: Inhibition of RTMDR-1 (HIV-MDR) replication in PBMNC (RT activity); assay type: cell-based
# Description: as §1
# [6] = test system: NRTI-resistant recombinant HIV-1 isolates; settings: cited from earlier work
# [7] = test system: NRTI-resistant recombinant HIV-1 isolates; experiment: Documented fold decreased susceptibility of recombinant HIV-1 clones; assay type: cell-based
structure (smiles),measurement,setting,value
"Cc1cn([C@H]2C[C@H](N=[N+]=[N-])[C@@H](CO)O2)c(=O)[nH]c1=O [AZT, 3′-azido-3′-deoxythymidine]",IC50,"[1]; Human immunodeficiency virus 1, read-out: IC50 (nM), RT, recombinant clone 1617-1",174 nM
same,IC50,"[1]; Human immunodeficiency virus 1, read-out: IC50 (nM), RT, recombinant clone 4755-5",15.4 nM
same,IC50,"[1]; Human immunodeficiency virus 1, read-out: IC50 (nM), RT, recombinant clone 7295-1",0.8 nM
same,IC50,"[1]; Human immunodeficiency virus 1, read-out: IC50 (nM), RT, recombinant clone 7324-1",108 nM
same,IC50,"[1]; Human immunodeficiency virus 1, read-out: IC50 (nM), RT, recombinant clone 52534-2",54.8 nM
same,IC50,"[1]; Human immunodeficiency virus 1, read-out: IC50 (nM), RT, recombinant clone 56252-1",187 nM
same,IC50,"[1]; Human immunodeficiency virus 1, read-out: mean IC50, RT, mean over 6 multi-NRTI-resistant clones",90 ± 32.4 nM
same,IC50,"[2]; Human immunodeficiency virus 1, read-out: IC50 (nM), p24, recombinant clone 1617-1 (151 complex)",320 nM
same,IC50,"[2]; Human immunodeficiency virus 1, read-out: IC50 (nM), p24, recombinant clone 4755-5",165 nM
same,IC50,"[2]; Human immunodeficiency virus 1, read-out: IC50 (nM), p24, recombinant clone 7295-1",137 nM
same,IC50,"[2]; Human immunodeficiency virus 1, read-out: IC50 (nM), p24, recombinant clone 7324-1",> 1000 nM
same,IC50,"[2]; Human immunodeficiency virus 1, read-out: IC50 (nM), p24, recombinant clone 52252-1 in Table 18, 56252-1 in Tables 19 and 20 (K65R, 151 complex)",> 1000 nM
same,IC50,"[2]; Human immunodeficiency virus 1, read-out: IC50 (nM), p24, recombinant clone printed 52534-1 in Table 18, 52534-2 in Tables 19 and 20 (69 insertion complex)",> 1000 nM
same,IC50,"[2]; Human immunodeficiency virus 1, read-out: mean IC50 value, recombinant clones with 151 complex or 69 insertion complex (Group 3+Group 4)",773 ± 227 nM
same,IC50,"HIV-2 (Strain: CBL-20); Human immunodeficiency virus 2, Table 3, unit inferred, read-out: HIV-2 IC50 [RT]",2400 nM
same,antiviral activity against HIV-2 (in words),HIV-2 (Strain: CBL-20); PBMNC,not effective
same,IC50,[3],0.055 nM
same,IC50,"[4]; read-out: IC50, μM (p24), Mean ± SE, mean over 10 zidovudine-sensitive clinical isolates",0.004 ± 0.001 µM
same,IC50,"[4]; read-out: IC50, μM (p24), isolate 92BR025 (C/C, Brazil), PBMC",0.004 µM
same,IC50,"[4]; read-out: IC50, μM (p24), isolate 92RW008 (—/A, Rawanda), PBMC",0.002 µM
same,IC50,"[4]; read-out: IC50, μM (p24), isolate 93BR019 (—/BF, Brazil), PBMC",0.002 µM
same,IC50,"[4]; read-out: IC50, μM (p24), isolate 93BR020 (F/F, Brazil), PBMC",0.002 µM
same,IC50,"[4]; read-out: IC50, μM (p24), isolate 93BR029 (F/B, Brazil), PBMC",0.007 µM
same,IC50,"[4]; read-out: IC50, μM (p24), isolate 93IN101 (—/C, India), PBMC",0.001 µM
same,IC50,"[4]; read-out: IC50, μM (p24), isolate HIV-1G3 (—/G, Nigeria), PBMC",0.01 µM
same,IC50,"[4]; read-out: IC50 range, range over 10 zidovudine-sensitive clinical isolates",0.001 to 0.01 µM
same,IC90,[4]; read-out: IC90 mean ±SE,50 ± 10 nM
same,IC90,[4]; read-out: IC90 range,11 to 90 nM
same,IC50,"[5]; Human immunodeficiency virus 1, read-out: HIV-MDR IC50 [RT]",2000 nM
same,IC50,"[5]; Human immunodeficiency virus 1, read-out: IC50 against HIV-MDR",2000 nM
same,IC50,"[5]; Human immunodeficiency virus 1, read-out: RTMDR-1 IC50 [RT]",2000 nM
same,antiviral activity against RTMDR-1 (in words),[5]; PBMNC,not effective
same,Fold decreased susceptibility,[6]; recombinant clone 1617-1,261 fold
same,Fold decreased susceptibility,[6]; recombinant clone 4755-5,61 fold
same,Fold decreased susceptibility,[6]; recombinant clone 7295-1,9.9 fold
same,Fold decreased susceptibility,[6]; recombinant clone 7324-1,923 fold
same,Fold decreased susceptibility,[6]; recombinant clone 52534-2,719 fold
same,Fold decreased susceptibility,[6]; recombinant clone 56252-1,>1000 fold
same,mean reduction in susceptibility,[7]; mean over 6 recombinant clones,495.7 fold
same,median reduction in susceptibility,[7]; median over 6 recombinant clones,490 fold
